Experimental data: patent US20200368198A1, “METHODS FOR INCREASING FERTILITY” (NEWSOUTH INNOVATIONS PTY LIMITED, priority 2017, published 2020)
Values joined by “and” are separate entries in the source; they are usually repeats but may differ in a detail not shown here. Identical values can stand only once.

Experiments:
oocytes [1] = assay: Meiotic progression (GVBD, PBE) of harvested oocytes, doxorubicin with or without NMN; format: in vivo, mice; details: doxorubicin and/or NMN
Excerpt: Once harvested from ovaries, oocytes were stored in IBMX media to prevent progression into meiosis.

C57BL6 female mice [2] = assay: Mating trial after doxorubicin with or without NMN co-treatment; format: in vivo; details: for Number of mating rounds required to achieve pregnancy: the values are: cumulative % of females pregnant by round
Procedure: Following oocyte counting and analysis of oocyte meiotic progression, as well as a separate cohort of animals for histological ovarian analysis, a separate cohort of animals were treated as indicated, and mated with stud males of proven track record, to assess the ability of animals to deliver live births following chemotherapy treatment in the presence of absence of NMN co-treatment.

C57BL6 female mice [3] = assay: Cumulus oocyte complex yield after PMSG, cisplatin with or without NMN; format: in vivo; details: per mouse, single dose cisplatin 5 mg/kg i.p. and/or NMN 2 g/L drinking water, two months later
Procedure: To assess oocyte yield, and mice were hormonally stimulated to superovulated by intraperitoneal injection with 7.5 IU/mL of Pregnant Mare's Serum Gonadotropin (PMSG) (Folligon; Intervet, Boxmeer, Holland) to stimulate follicular growth. After 44-46 hours, ovaries were collected in HEPES-buffered minimum essential medium (aMEM; Gibco Life Technologies, Grand Island, N.Y.) supplemented with 50 µM of 3-isobuty-1-methylxanthine (IBMX) (Sigma aldrich, NSW, AU) (M2 medium) to maintain meitotic arrest at germinal vesicle stage. Cumulus oocyte complexes (COCs) were isolated from preovulatory follicles using a 27-gauge needle and collected using flame-pulled borosilicate Pasteur pipettes in M2 medium supplemented with 3 mg/ml bovine serum albumin (BSA; Sigma Aldrich, St. Louis, Mo.) and 100 μM IBMX (Sigma Aldrich). Cumulus oocyte complexes (COCs) were mechanically denuded of cumulus cells by pipetting, and the denuded oocytes were transferred to another dish containing a drop of fresh M2-medium plus IBMX on heat block with 37° C. with lid to protect oocytes from light. […]

C57BL6 females [4] = assay: Reversal design: primordial follicle counts in ovarian histology sections; format: in vivo, mice; details: doxorubicin 10 mg/kg i.p., NMN in drinking water started four weeks later for 4 weeks; per mouse
Excerpt: (§1) Ovaries were dissected from freshly euthanased animals, and preserved in 10% neutral buffered formalin for 24 hr, followed by 70% ethanol, until embedding in paraffin blocks. Blocks were sectioned on a microtome and subjected to haematoxylin and eosin (H&E) staining. Primordial follicles were manually counted by a blinded investigator.
Next, we decided to investigate whether NMN treatment delivered some time following chemotherapy treatment could actively reverse chemotherapy induced infertility. […] Four weeks later, they received NMN in their drinking water, for another 4 weeks, prior to being euthanased for either oocyte studies or ovarian histological analysis. The rationale of this experimental design is to investigate whether NMN has the ability to induce regeneration of the ovary. According to the standard dogma of reproductive biology, mammals are born with a set number of follicles which are slowly released as oocytes over the course of a lifetime, with the ovaries incapable of regenerating new follicles.

C57BL6 females [5] = assay: Reversal design: oocyte yield, cisplatin followed by NMN 4 weeks later; format: in vivo, mice; details: cisplatin 5 mg/kg i.p., per mouse
Procedure: To assess oocyte yield, and mice were hormonally stimulated to superovulated by intraperitoneal injection with 7.5 IU/mL of Pregnant Mare's Serum Gonadotropin (PMSG) (Folligon; Intervet, Boxmeer, Holland) to stimulate follicular growth. After 44-46 hours, ovaries were collected in HEPES-buffered minimum essential medium (aMEM; Gibco Life Technologies, Grand Island, N.Y.) supplemented with 50 µM of 3-isobuty-1-methylxanthine (IBMX) (Sigma aldrich, NSW, AU) (M2 medium) to maintain meitotic arrest at germinal vesicle stage. Cumulus oocyte complexes (COCs) were isolated from preovulatory follicles using a 27-gauge needle and collected using flame-pulled borosilicate Pasteur pipettes in M2 medium supplemented with 3 mg/ml bovine serum albumin (BSA; Sigma Aldrich, St. Louis, Mo.) and 100 μM IBMX (Sigma Aldrich). Cumulus oocyte complexes (COCs) were mechanically denuded of cumulus cells by pipetting, and the denuded oocytes were transferred to another dish containing a drop of fresh M2-medium plus IBMX on heat block with 37° C. with lid to protect oocytes from light.
Next, we decided to investigate whether NMN treatment delivered some time following chemotherapy treatment could actively reverse chemotherapy induced infertility. […]

C57BL6 females [6] = assay: Reversal design: pups born after chemotherapy followed by NMN; format: in vivo, mice; details: cisplatin 5 mg/kg i.p., NMN delivered well after chemotherapy; 6 mating rounds
Excerpt: In Examples 2-4, it was shown that co-treatment with NMN during chemotherapy treatment could protect against infertility. Next, we decided to investigate whether NMN treatment delivered some time following chemotherapy treatment could actively reverse chemotherapy induced infertility. […] The rationale of this experimental design is to investigate whether NMN has the ability to induce regeneration of the ovary. According to the standard dogma of reproductive biology, mammals are born with a set number of follicles which are slowly released as oocytes over the course of a lifetime, with the ovaries incapable of regenerating new follicles.

oocytes [7] = assay: Spindle structure staining of oocytes from aged NMN treated mice; format: in vivo
Excerpt: (§2) To determine the impact of NMN on spindle assembly, oocytes from C57BL6 mice were next stained for spindle structure (FIG. 3F).
As with other sirtuins, SIRT2 is critically dependent for its activity on levels of its enzymatic co-factor NAD^+, which naturally declines with old age. We hypothesized that increasing NAD^+ availability during old age could restore SIRT2 activity, and recapitulate the improvements in fertility observed with old age during SIRT2 over-expression. To test this, non-genetically modified C57BL6 female mice were treated with the NAD^+ precursor nicotinamide mononucleotide (NMN), as in the Examples above. Mice were treated at 15 months of age, when mice normally experience ovarian failure (FIG. 34). Three weeks later, oocytes were harvested, and analysed for spindle structure (FIG. 35).

ovaries = assay: Histological analysis of ovaries from NMN treated females; format: in vivo, mice
Excerpt: as §1, §2

C57BL6 mice = assay: Breeding trial with NMN in drinking water; format: in vivo; details: NMN 2 g/L drinking water
Excerpt: FIG. 4. A) is a graph showing litter size. C57BL6 mice were maintained on normal drinking water supplemented with or without NMN (2 g/L) from 2 months of age. From 4 months of age, animals were timed mated with proven stud male C57BL6. Pregnancy was confirmed using micro-ultrasound for the presence of a foetal heartbeat, and the number of pups born in subsequent litters recorded. B) is a graph showing body weights of pups from breeding trials at 12 days of age.
To determine whether NMN treatment could improve overall, functional fertility, we conducted a breeding trial in C57BL6 mice. Both pregnancy success rates and litter size (FIG. 4A) were improved in animals that received NMN, further confirming the importance of this mechanism to female fertility. Offspring from females that received NMN treatment developed at a similar rate to offspring from untreated females, even after challenging with high fat feeding (FIG. 5A and 5B).

NC(=O)c1ccc[n+]([C@@H]2O[C@H](COP(=O)([O-])O)[C@@H](O)[C@H]2O)c1 [NMN, nicotinamide mononucleotide]
Proportion of harvested oocytes achieving germinal vesicle breakdown (oocytes [1]; 1 h after release from IBMX): 17 % of total | Proportion of harvested oocytes achieving germinal vesicle breakdown (oocytes [1]; 2 h after release from IBMX): 67 % of total | Proportions of oocytes achieving polar body extrusion (oocytes [1]; 14 hr following GVBD): 79 | Proportions of oocytes achieving polar body extrusion (oocytes [1]; 16 hr following GVBD): 50 | Proportions of oocytes achieving polar body extrusion (oocytes [1]; 20 hr following GVBD): 80 | Number of mating rounds required to achieve pregnancy (C57BL6 female mice [2]; Round 0): 0% | Number of mating rounds required to achieve pregnancy (C57BL6 female mice [2]; Round 1): 60% | Number of mating rounds required to achieve pregnancy (C57BL6 female mice [2]; Round 2): 80% | Number of mating rounds required to achieve pregnancy (C57BL6 female mice [2]; Round 3): 88% | Body weight of pups born to females receiving NMN (C57BL6 female mice [2]; day 12 of age): no difference in body weight | Numbers of cumulus oocyte complexes released from mice (C57BL6 female mice [3]): completely rescued and 16 and 14 and 17 and 12 and 13 and 11 | Primordial follicle numbers in ovarian histology sections (C57BL6 females [4]): 108 and 86 and 94 and 78 | Oocyte yield (C57BL6 females [5]): restoration of oocyte number and 9 and 17 and 10 | Number of pups born (cisplatin followed by NMN) (C57BL6 females [6]): complete restoration | Spindle structure in oocytes (oocytes [7]; 15 month old C57BL6 females, NMN 3 weeks): reverse severe spindle defects | Spindle and chromosome arrangement in oocytes (oocytes [7]; aged C57BL6 females, NMN 2 g/L drinking water, 4 weeks): bi-polar, barrel-shaped arrangement with well-aligned chromosomes | Oogonial reserve, histological analysis of ovaries (ovaries): improved oogonial reserve | Litter size (C57BL6 mice): improved | Pregnancy success rates (C57BL6 mice): improved
